From patent US10493060B2, “Spirocyclic compounds” (ZENO ROYALTIES & MILESTONES, LLC, priority 2015, dated 2019)

Experiments:
[1] = tested on: A375 (melanoma) cells; experiment: Proliferation assay (CellTiter-Glo), A375; assay type: cell-based; details: Homo sapiens, A-375, 72 h, 3 days
Method: A375 (melanoma), Colo-205 (colon cancer), Miapaca (pancreatic), HPAFII (pancreatic), sNF02.0 (neurofibromatosis type 1), sNF96.2 (neurofibromatosis type 1) and 8505 (Thyroid) cells were grown and maintained in RPMI-1640 medium containing 100 U/mL penicillin-streptomycin and 10% fetal bovine serum. Cells were in growth medium in 96-well opaque-walled clear bottom plates and incubated the in the CO2 incubator overnight before treatment. Cells were treated with compounds diluted in DMSO and a 10 point 3-fold serial dilutions were done. Plates were placed in 37° C., 5% CO2 for to incubate for 3 days. Before they were developed by adding 100 μL of CellTiter-Glo reagent (Promega) to the assay plate, plates were shaken briefly for 2 mins and allowed to incubate at rt for 10 mins. The bottom of the plates was pasted with white back seal and luminescence was recorded with Flexstation3 with setting of luminescence, integration time 500 ms.

[2] = molecular target: Activated ERK2 (Homo sapiens (Human), UniProt P28482); experiment: Active ERK2 kinase assay (Mobility Shift Assay); assay type: biochemical
Method: (§1) Activated ERK1 and ERK2 activity was determined in a Mobility Shift Assay (MSA) format as follows: Compound and kinase solution were prepared with assay buffer (20 mM HEPES, 0.01% Triton X-100, 2 mM DTT, pH7.5) and mixed and incubated in for 30 mins at rt. ERK1 & ERK2 were then activated by the addition of Fl-Substrate, ATP and metal solution and incubated for 1 h at rt. After 1 h, the reaction was terminated by the addition of […] of Termination Buffer (QuickScout Screening Assist MSA; Carna Biosciences) to the well. The reaction mixture was applied to LabChip™ system (PerkinElmer), and the product and substrate peptide peaks were separated, analyzed and quantitated. The kinase reaction is evaluated by the product ratio calculated from peak heights of product (P) and substrate (S) peptides (P/(P+S)).

[3] = molecular target: Activated ERK1 (Homo sapiens (Human), UniProt P27361); experiment: Active ERK1 kinase assay (Mobility Shift Assay); assay type: biochemical
Method: as §1

Sequence of Activated ERK2 (P28482 whole entry): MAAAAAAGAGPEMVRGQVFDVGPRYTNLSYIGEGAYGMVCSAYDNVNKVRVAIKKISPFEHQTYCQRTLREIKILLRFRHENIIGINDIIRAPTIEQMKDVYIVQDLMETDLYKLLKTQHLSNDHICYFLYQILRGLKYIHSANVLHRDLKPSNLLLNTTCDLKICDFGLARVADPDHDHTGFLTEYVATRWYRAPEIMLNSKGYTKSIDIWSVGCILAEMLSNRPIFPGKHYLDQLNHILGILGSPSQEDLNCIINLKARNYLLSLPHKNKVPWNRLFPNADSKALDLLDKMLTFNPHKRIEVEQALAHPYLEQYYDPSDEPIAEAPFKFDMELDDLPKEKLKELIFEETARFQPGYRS
Sequence of Activated ERK1 (P27361 whole entry): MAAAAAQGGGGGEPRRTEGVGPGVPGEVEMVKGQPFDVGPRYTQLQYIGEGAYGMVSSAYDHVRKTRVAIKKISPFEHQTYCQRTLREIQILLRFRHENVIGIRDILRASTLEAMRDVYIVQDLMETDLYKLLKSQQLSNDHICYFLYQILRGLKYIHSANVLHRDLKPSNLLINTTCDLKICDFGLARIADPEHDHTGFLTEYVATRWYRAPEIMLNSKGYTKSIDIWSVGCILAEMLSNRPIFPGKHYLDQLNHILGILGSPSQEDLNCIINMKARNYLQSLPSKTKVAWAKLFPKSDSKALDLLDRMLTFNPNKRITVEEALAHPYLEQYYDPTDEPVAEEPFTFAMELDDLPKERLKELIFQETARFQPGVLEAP

IC50 [1] [µM]	IC50 [2] [µM]	IC50 [3] [µM]	Structure (SMILES)
≥ 1	0.05 to 0.25	–	Cn1cnc(-c2ccc(C3=CCN(C(=O)CN4CC[C@]5(CCN(c6ccc7[nH]ncc7c6)C5=O)C4)CC3)cc2)n1 [Example 36, (S)-2-(1H-indazol-5-yl)-7-(2-(4-(4-(1-methyl-1H-1,2,4-triazol-3-yl)phenyl)-3,6-dihydropyridin-1(2H)-yl)-2-oxoethyl)-2,7-diazaspiro[4.4]nonan-1-one]
≤ 0.5	≤ 0.05	–	CC(C)Oc1ccc(-c2n[nH]c3ccc(N4CC[C@]5(CCN(CC(=O)N6CC=C(c7ccc(-c8cn(C)cn8)cc7)CC6)C5)C4=O)cc23)cn1 [Example 26, (S)-2-(3-(6-Isopropoxypyridin-3-yl)-1H-indazol-5-yl)-7-(2-(4-(4-(1-methyl-1H-imidazol-4-yl)phenyl)-3,6-dihydropyridin-1(2H)-yl)-2-oxoethyl)-2,7-diazaspiro[4.4]nonan-1-one]
≥ 1	≤ 0.05	–	Cc1noc(-c2ccc(C3=CCN(C(=O)CN4CC[C@]5(CCN(c6ccc7[nH]nc(-c8ccnc(C(F)(F)F)c8)c7c6)C5=O)C4)CC3)cc2)n1 [Example 43, (S)-7-(2-(4-(4-(3-methyl-1,2,4-oxadiazol-5-yl)phenyl)-3,6-dihydropyridin-1(2H)-yl)-2-oxoethyl)-2-(3-(2-(trifluoromethyl)pyridin-4-yl)-1H-indazol-5-yl)-2,7-diazaspiro[4.4]nonan-1-one]
≤ 0.5	≤ 0.05	–	Cn1cnc(-c2ccc(C3=CCN(C(=O)CN4CC[C@]5(CCN(c6ccc7[nH]nc(-c8ccnc(C(F)F)c8)c7c6)C5=O)C4)CC3)cc2)n1 [Example 40, (S)-2-(3-(2-(Difluoromethyl)pyridin-4-yl)-1H-indazol-5-yl)-7-(2-(4-(4-(1-methyl-1H-1,2,4-triazol-3-yl)phenyl)-3,6-dihydropyridin-1(2H)-yl)-2-oxoethyl)-2,7-diazaspiro[4.4]nonan-1-one]
≤ 0.5	≤ 0.05	–	Cc1nnc(-c2ccc(C3=CCN(C(=O)CN4CC[C@]5(CCN(c6ccc7[nH]nc(-c8ccnc(C(F)(F)F)c8)c7c6)C5=O)C4)CC3)cc2)o1 [Example 42, (S)-7-(2-(4-(4-(5-Methyl-1,3,4-oxadiazol-2-yl)phenyl)-3,6-dihydropyridin-1 (2H)-yl)-2-oxoethyl)-2-(3-(2-(trifluoromethyl)pyridin-4-yl)-1H-indazol-5-yl)-2,7-diazaspiro[4.4]nonan-1-one]
≤ 0.5	≤ 0.05	–	Cn1cnc(-c2ccc(C3=CCN(C(=O)CN4CC[C@]5(CCN(c6ccc7[nH]nc(N8CCOCC8)c7c6)C5=O)C4)CC3)cc2)n1 [Example 33, (S)-7-(2-(4-(4-(1-Methyl-1H-1,2,4-triazol-3-yl)phenyl)-3,6-dihydropyridin-1 (2H)-yl)-2-oxoethyl)-2-(3-morpholino-1H-indazol-5-yl)-2,7-diazaspiro[4.4]nonan-1-one]
≤ 0.5	≤ 0.05	–	Cn1cc(-c2ccc(C3=CCN(C(=O)CN4CC[C@]5(CCN(c6ccc7[nH]nc(-c8ccnc(C(F)(F)F)c8)c7c6)C5=O)C4)CC3)cc2)nn1 [Example 41, (S)-7-(2-(4-(4-(1-methyl-1H-1,2,3-triazol-4-yl)phenyl)-3,6-dihydropyridin-1 (2H)-yl)-2-oxoethyl)-2-(3-(2-(trifluoromethyl)pyridin-4-yl)-1H-indazol-5-yl)-2,7-diazaspiro[4.4]nonan-1-one]
≥ 1	≥ 0.25	–	Cn1cnc(-c2ccc(C3=CCN(C(=O)CN4CC[C@]5(CCN(c6ccc7[nH]nc(-c8cnccc8C(F)(F)F)c7c6)C5=O)C4)CC3)cc2)n1 [Example 34, (S)-7-(2-(4-(4-(1-Methyl-1H-1,2,4-triazol-3-yl)phenyl)-3,6-dihydropyridin-1(2H)-yl)-2-oxoethyl)-2-(3-(4-(trifluoromethyl)pyridin-3-yl)-1H-indazol-5-yl)-2,7-diazaspiro[4.4]nonan-1-one]
–	≥ 0.25	≥ 0.25	CC(C)Oc1ccc(-c2n[nH]c3ccc(N4CCC5(CCN(CC(=O)N6CCN(c7ccc(-c8ncn(C)n8)cc7)CC6)C5)C4)cc23)cn1 (centres unmarked) [Example 2, 2-(7-(3-(6-Isopropoxypyridin-3-yl)-1H-indazol-5-yl)-2,7-diazaspiro[4.4]nonan-2-yl)-1-(4-(4-(1-methyl-1H-1,2,4-triazol-3-yl)phenyl)piperazin-1-yl)ethan-1-one]
≤ 0.5	≤ 0.05	–	CC(C)Oc1ccc(-c2n[nH]c3ccc(N4CC[C@]5(CCN(CC(=O)N6CCN(c7ccc(-c8ncn(C)n8)cc7)CC6)C5)C4=O)cc23)cn1 [Example 32, (S)-2-(3-(6-Isopropoxypyridin-3-yl)-1H-indazol-5-yl)-7-(2-(4-(4-(1-methyl-1H-1,2,4-triazol-3-yl)phenyl)piperazin-1-yl)-2-oxoethyl)-2,7-diazaspiro[4.4]nonan-1-one]
–	0.05 to 0.25	≥ 0.25	CC(C)Oc1ccc(-c2n[nH]c3ccc(N4CCCC5(CCN(CC(=O)N6CC=C(c7ccc(-c8ncn(C)n8)cc7)CC6)C5)C4=O)cc23)cn1 (centres unmarked) [Example 5, 7-(3-(6-Isopropoxypyridin-3-yl)-1H-indazol-5-yl)-2-(2-(4-(4-(1-methyl-1H-1,2,4-triazol-3-yl)phenyl)-3,6-dihydropyridin-1 (2H)-yl)-2-oxoethyl)-2,7-diazaspiro[4.5]decan-6-one]
–	≤ 0.05	0.05 to 0.25	Cc1cc(-c2n[nH]c3ccc(N4CC[C@@]5(CCN(CC(=O)N6CC=C(c7ccc(-c8ncn(C)n8)cc7)CC6)C5)C4=O)cc23)ccn1 [Example 9, (R)-7-(2-(4-(4-(1-Methyl-1H-1,2,4-triazol-3-yl)phenyl)-3,6-dihydropyridin-1(2H)-yl)-2-oxoethyl)-2-(3-(2-methylpyridin-4-yl)-1H-indazol-5-yl)-2,7-diazaspiro[4.4]nonan-1-one]
–	≤ 0.05	≤ 0.05	CC(C)Oc1ccc(-c2n[nH]c3ccc(N4CC[C@]5(CCN(CC(=O)N6CCC(c7ccc(-c8ncn(C)n8)cc7)CC6)C5)C4=O)cc23)cn1 [Example 16, (S)-2-(3-(6-Isopropoxypyridin-3-yl)-1H-indazol-5-yl)-7-(2-(4-(4-(1-methyl-1H-1,2,4-triazol-3-yl)phenyl)piperidin-1-yl)-2-oxoethyl)-2,7-diazaspiro[4.4]nonan-1-one]
–	≥ 0.25	≥ 0.25	CC(C)Oc1ccc(-c2n[nH]c3ccc(N4CCC5(CCN(Cc6ccccc6)C5)C4=O)cc23)cn1 (centres unmarked) [Example 21, 7-Benzyl-2-(3-(6-isopropoxypyridin-3-yl)-1H-indazol-5-yl)-2,7-diazaspiro[4.4]nonan-1-one]
–	≤ 0.05	≤ 0.05	CCNc1nnc(-c2ccc(C3=CCN(C(=O)CN4CC[C@]5(CCN(c6ccc7[nH]nc(-c8ccc(OC(C)C)nc8)c7c6)C5=O)C4)CC3)cc2)s1 [Example 19, (S)-7-(2-(4-(4-(5-(Ethylamino)-1,3,4-thiadiazol-2-yl)phenyl)-3,6-dihydropyridin-1(2H)-yl)-2-oxoethyl)-2-(3-(6-isopropoxypyridin-3-yl)-1H-indazol-5-yl)-2,7-diazaspiro[4.4]nonan-1-one]
–	≥ 0.25	≥ 0.25	CC(C)Oc1ccc(-c2n[nH]c3ccc(N4CC[C@@]5(CCN(CC(=O)N6CC=C(c7ccc(-c8ncn(C)n8)cc7)CC6)C5)C4=O)cc23)cn1 [Example 11, (R)-2-(3-(6-Isopropoxypyridin-3-yl)-1H-indazol-5-yl)-7-(2-(4-(4-(1-methyl-1H-1,2,4-triazol-3-yl)phenyl)-3,6-dihydropyridin-1 (2H)-yl)-2-oxoethyl)-2,7-diazaspiro[4.4]nonan-1-one]
